Assays:
[1] = tested on: Puccinia recondita f. sp. Tritici; experiment: Puccinia recondita f. sp. tritici / wheat / leaf disc preventative (brown rust); format: in vivo; conditions: foliar, wheat leaf segments cv Kanzler, inoculated 1 day after application, assessed 7-9 days after application, read-out: control of Puccinia recondita f. sp. Tritici (percent disease control compared to untreated)
Description: Puccinia recondita f. Sp. Tritici/Wheat/Leaf Disc Preventative (Brown Rust): Wheat leaf segments cultivated variety (cv) Kanzler were placed on agar in 24-well plates and sprayed with formulated test compound diluted in water at an application rate of 200 ppm. The leaf disks were inoculated with a spore suspension of the fungus 1 day after application. The inoculated leaf segments were incubated at 19° C. and 75% relative humidity under a light regime of 12/12 h (light/dark) in a climate cabinet and the activity of a compound was assessed as percent disease control compared to untreated when an appropriate level of disease damage appears in untreated check leaf segments (7-9 days after application).

Pyrenophora teres = Pyrenophora teres / barley / leaf disc preventative (net blotch); format: in vivo; conditions: foliar, barley leaf segments cv Hasso, inoculated two days after application, assessed 5-7 days after application, read-out: control of Pyrenophora teres (disease control compared to untreated)
Description: Pyrenophora Teres/Barley/Leaf Disc Preventative (Net Blotch): Barley leaf segments cv Hasso are placed on agar in a 24-well plate and sprayed with formulated test compound diluted in water at an application rate of 200 ppm. The leaf segments are inoculated with a spore suspension of the fungus two days after application of the test solution. The inoculated leaf segments are incubated at 20° C. and 65% relative humidity under a light regime of 12/12 h (light/dark) in a climate cabinet and the activity of a compound is assessed as disease control compared to untreated when an appropriate level of disease damage appears in untreated check leaf segments (5-7 days after application).

[2] = tested on: Mycosphaerella graminicola (Septoria tritici); experiment: Mycosphaerella graminicola (Septoria tritici) / liquid culture (Septoria blotch); format: cell-based; conditions: Zymoseptoria tritici, PDB, 24° C., 4-5 days after application, read-out: control of Mycosphaerella graminicola (inhibition of growth, photometric)
Description: Mycosphaerella graminicola (Septoria tritici)/Liquid Culture (Septoria Blotch): Conidia of the fungus from cryogenic storage were directly mixed into nutrient broth (PDB potato dextrose broth). After placing a DMSO solution of test compound into a 96-well microtiter plate at an application rate of 200 ppm, the nutrient broth containing the fungal spores was added. The test plates were incubated at 24° C. and the inhibition of growth was determined photometrically 4-5 days after application.

[3] = tested on: Thanatephorus cucumeris (Rhizoctonia solani); experiment: Thanatephorus cucumeris (Rhizoctonia solani) / liquid culture (foot rot, damping-off); format: cell-based; conditions: PDB, 24° C., 3-4 days after application, read-out: control of Thanatephorus cucumeris (inhibition of growth, photometric)
Description: Thanatephorus cucumeris (Rhizoctonia solani)/Liquid Culture (Foot Rot, Damping-Off): Mycelia fragments of a newly grown liquid culture of the fungus are directly mixed into nutrient broth (PDB potato dextrose broth). After placing a DMSO solution of the test compounds into a 96-well microtiter plate at an application rate of 200 ppm, the nutrient broth containing the fungal material was added. The test plates were incubated at 24° C. and the inhibition of growth was determined photometrically 3-4 days after application.

[4] = tested on: Botryotinia fuckeliana (Botrytis cinerea); experiment: Botryotinia fuckeliana (Botrytis cinerea) / liquid culture (gray mould); format: cell-based; conditions: Vogels broth, 24° C., 3-4 days after application, read-out: control of Botryotinia fuckeliana (inhibition of growth, photometric)
Description: Botryotinia Fuckeliana (Botrytis cinerea)/Liquid Culture (Gray Mould): Conidia of the fungus from cryogenic storage were directly mixed into nutrient broth (Vogels broth). After placing a DMSO solution of test compound into a 96-well microtiter plate at an application rate of 200 ppm, the nutrient broth containing the fungal spores was added. The test plates were incubated at 24° C. and the inhibition of growth was determined photometrically 3-4 days after application.

Gaeumannomyces graminis = Gaeumannomyces graminis / liquid culture (take-all of cereals); format: cell-based; conditions: PDB, 24° C., 4-5 days after application, read-out: control of Gaeumannomyces graminis (inhibition of growth, photometric)
Description: Gaeumannomyces graminis/Liquid Culture (Take-all of Cereals): Mycelial fragments of the fungus from cryogenic storage were directly mixed into nutrient broth (PDB potato dextrose broth). After placing a DMSO solution of test compound into a 96-well microtiter plate at an application rate of 200 ppm, the nutrient broth […], containing the fungal spores is added. The test plates were incubated at 24° C. and the inhibition of growth was determined photometrically 4-5 days after application.

CCn1c(-n2ncnc2N)nc2cncc(C(C)=NOc3ccccc3)c21 [Compound 168]
≥ 80%: pest or weed control at 200 ppm [1] | pest or weed control at 200 ppm (Pyrenophora teres) | inhibition at 20 ppm [2] | inhibition at 20 ppm [3]

CCn1c(-n2ncnc2N)nc2cncc(-c3cccc(C(F)(F)F)c3)c21 [Compound 31, 2-[1-ethyl-7-[3-(trifluoromethyl)phenyl]imidazo[4,5-c]pyridin-2-yl]-1,2,4-triazol-3-amine]
≥ 80%: pest or weed control at 200 ppm (Pyrenophora teres) | inhibition at 20 ppm [4] | inhibition at 20 ppm [3]

CCn1c(-n2ncnc2N)nc2cncc(-c3ccc(Cl)c(C(F)(F)F)c3)c21 [Compound 49]
≥ 80%: pest or weed control at 200 ppm (Pyrenophora teres) | inhibition at 20 ppm [4] | inhibition at 20 ppm [2] | inhibition at 20 ppm [3]

CCn1c(-n2ncnc2N)nc2cncc(/C(C)=N/OCC(C)C)c21 [Compound 162]
≥ 80%: pest or weed control at 200 ppm [1] | inhibition at 20 ppm [2] | inhibition at 20 ppm [3]

C=C(C)CO/N=C(\C)c1cncc2nc(-n3ncnc3N)n(CC)c12 [Compound 179]
≥ 80%: inhibition at 20 ppm [4] | inhibition at 20 ppm [2] | inhibition at 20 ppm [3]

CCn1c(-n2ncnc2N)nc2cncc(-c3cccc(Cl)c3)c21 [Compound 34, 2-[7-(3-chlorophenyl)-1-ethylimidazo[4,5-c]pyridin-2-yl]-1,2,4-triazol-3-amine]
≥ 80%: pest or weed control at 200 ppm (Pyrenophora teres) | inhibition at 20 ppm [4] | inhibition at 20 ppm [2] | inhibition at 20 ppm [3]

CCn1c(-n2ncnc2N)nc2cncc(C#N)c21 [Compound 128, 2-(5-amino-1,2,4-triazol-1-yl)-1-ethylimidazo[4,5-c]pyridine-7-carbonitrile]
≥ 80%: inhibition at 20 ppm (Gaeumannomyces graminis) | inhibition at 20 ppm [3]

CCn1c(-n2ncnc2N)nc2cncc(-c3ccc(OC)c(F)c3)c21 [Compound 43, 2-[1-ethyl-7-(3-fluoro-4-methoxyphenyl)imidazo[4,5-c]pyridin-2-yl]-1,2,4-triazol-3-amine]
≥ 80%: pest or weed control at 200 ppm (Pyrenophora teres) | inhibition at 20 ppm [4] | inhibition at 20 ppm [2] | inhibition at 20 ppm [3]

CCn1c(-n2ncnc2N)nc2cncc(-c3ccc(F)cc3C)c21 [Compound 92, 2-[1-ethyl-7-(4-fluoro-2-methylphenyl)imidazo[4,5-c]pyridin-2-yl]-1,2,4-triazol-3-amine]
≥ 80%: pest or weed control at 200 ppm (Pyrenophora teres) | inhibition at 20 ppm [4] | inhibition at 20 ppm [2] | inhibition at 20 ppm (Gaeumannomyces graminis) | inhibition at 20 ppm [3]

CCn1c(-n2ncnc2N)nc2cncc(-c3ccc(OC)nc3OC)c21 [Compound 56, 2-[7-(2,6-dimethoxypyridin-3-yl)-1-ethylimidazo[4,5-c]pyridin-2-yl]-1,2,4-triazol-3-amine]
≥ 80%: pest or weed control at 200 ppm [1] | pest or weed control at 200 ppm (Pyrenophora teres) | inhibition at 20 ppm [4] | inhibition at 20 ppm [2] | inhibition at 20 ppm [3]

Nc1ncnn1-c1nc2cncc(-c3ccccc3F)c2n1C1CCCCC1 [Compound 127, 2-[1-cyclohexyl-7-(2-fluorophenyl)imidazo[4,5-c]pyridin-2-yl]-1,2,4-triazol-3-amine]
≥ 80%: inhibition at 20 ppm (Gaeumannomyces graminis)

Nc1ncnn1-c1nc2cnccc2n1C1CC1 [Compound 1, 2-(1-cyclopropylimidazo[4,5-c]pyridin-2-yl)-1,2,4-triazol-3-amine]
≥ 80%: pest or weed control at 200 ppm (Pyrenophora teres) | inhibition at 20 ppm [4] | inhibition at 20 ppm [2] | inhibition at 20 ppm (Gaeumannomyces graminis) | inhibition at 20 ppm [3]

CCn1c(-n2ncnc2N)nc2cncc(-c3ccc(-c4ccc(F)cc4)nc3)c21 [Compound 54, 2-[1-ethyl-7-[6-(4-fluorophenyl)pyridin-3-yl]imidazo[4,5-c]pyridin-2-yl]-1,2,4-triazol-3-amine]
≥ 80%: pest or weed control at 200 ppm [1] | inhibition at 20 ppm [4] | inhibition at 20 ppm [2] | inhibition at 20 ppm [3]

CCn1c(-n2ncnc2N)nc2cncc(-c3cc(C)c(OC)c(C)c3)c21 [Compound 47, 2-[1-ethyl-7-(4-methoxy-3,5-dimethylphenyl)imidazo[4,5-c]pyridin-2-yl]-1,2,4-triazol-3-amine]
≥ 80%: pest or weed control at 200 ppm [1] | pest or weed control at 200 ppm (Pyrenophora teres) | inhibition at 20 ppm [3]

CCn1c(-n2ncnc2N)nc2cncc(/C(C)=N/OC(C)C)c21 [Compound 167]
≥ 80%: pest or weed control at 200 ppm [1] | pest or weed control at 200 ppm (Pyrenophora teres) | inhibition at 20 ppm [2] | inhibition at 20 ppm [3]

CCn1c(-n2ncnc2N)nc2cncc(-c3cccc(Cl)c3C)c21 [Compound 99, 2-[7-(3-chloro-2-methylphenyl)-1-ethylimidazo[4,5-c]pyridin-2-yl]-1,2,4-triazol-3-amine]
≥ 80%: pest or weed control at 200 ppm [1] | pest or weed control at 200 ppm (Pyrenophora teres) | inhibition at 20 ppm [4] | inhibition at 20 ppm [2] | inhibition at 20 ppm (Gaeumannomyces graminis) | inhibition at 20 ppm [3]

CCn1c(-n2ncnc2N)nc2cncc(-c3ccc(Cl)c(Cl)c3)c21 [Compound 36, 2-[7-(3,4-dichlorophenyl)-1-ethylimidazo[4,5-c]pyridin-2-yl]-1,2,4-triazol-3-amine]
≥ 80%: pest or weed control at 200 ppm [1] | pest or weed control at 200 ppm (Pyrenophora teres) | inhibition at 20 ppm [2] | inhibition at 20 ppm [3]

CCCn1c(-n2ncnc2N)nc2cncc(/C(C)=N/OCC=C(Cl)Cl)c21 [Compound 187]
≥ 80%: pest or weed control at 200 ppm [1] | inhibition at 20 ppm [2] | inhibition at 20 ppm (Gaeumannomyces graminis) | inhibition at 20 ppm [3]

CCn1c(-n2ncnc2N)nc2cncc(-c3ccc(C)c(C)c3)c21 [Compound 46, 2-[7-(3,4-dimethylphenyl)-1-ethylimidazo[4,5-c]pyridin-2-yl]-1,2,4-triazol-3-amine]
≥ 80%: inhibition at 20 ppm [4] | inhibition at 20 ppm [2] | inhibition at 20 ppm [3]

Nc1ncnn1-c1nc2cncc(-c3ccccc3Cl)c2n1C1CCCCC1 [Compound 126, 2-[7-(2-chlorophenyl)-1-cyclohexylimidazo[4,5-c]pyridin-2-yl]-1,2,4-triazol-3-amine]
≥ 80%: inhibition at 20 ppm [4]

CCn1c(-n2ncnc2N)nc2cncc(-c3cc(C)sc3C)c21 [Compound 52, 2-[7-(2,5-dimethylthiophen-3-yl)-1-ethylimidazo[4,5-c]pyridin-2-yl]-1,2,4-triazol-3-amine]
≥ 80%: inhibition at 20 ppm [4] | inhibition at 20 ppm [2] | inhibition at 20 ppm [3]

— patent US9512120B2, “Microbicidally active imidazopyridine derivatives” (Syngenta Participations AG, priority 2013, dated 2016)
